What is called IC50 is the midpoint of a concentration-inhibition curve. A higher IC50 goes with lower potency.

The target of experiment [1] is T1, BRD4 bromo domain 2 [BRD4(2)] (Homo sapiens, UniProt O60885).
T1 construct: N-terminally His6-tagged BRD4(2) (amino acids 357-445); made in house; host or cells: E. coli
The experiment can be described thus: BRD4/acetylated peptide H4 binding assay (TR-FRET), BRD4 bromo domain 2. Particulars: inhibition of BRD4(2)/Ac-H4 peptide interaction. The method, boiled down: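 IC50 comes from a 4-parameter fit over 0.1 nM–20 μM in duplicate, normalised to DMSO and no-protein controls. TR-FRET (Eu-streptavidin/anti-His-XL665) tracks His-tagged BRD4(2) 357-445 at 100 nM binding Ac-H4 peptide in HEPES pH 7.5 buffer. Incubation was 1 h at 22 °C, then at 4 °C ≥3 h up to overnight.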
(In general: In TR-FRET formats the signal depends on donor and acceptor labels being close together.)

The test system of experiment [2] is B16F10 cells. Kind of experiment: Cell proliferation assay (alamarBlue), B16F10. To be noted: Mus musculus, B16-F10; B16F10 (melanoma, BRAF wild-type), 96 hours. It counts as cell-based. Here is the method: (§1) In accordance with the invention, the ability of the substances to inhibit cell proliferation was determined. Cell viability was determined by means of the alamarBlue® reagent (Invitrogen) in a Victor X3 Multilabel Reader (Perkin Elmer). The excitation wavelength was 530 nm and the emission wavelength […].
The B16F10 cells (ATCC, CRL-6475) were sown at a concentration of 300-500 cells/well in 100 μl of growth medium (DMEM with phenol red, 10% FCS) on 96-well microtitre plates.
(§2) After overnight incubation at 37° C., the fluorescence values were determined (CI values). Then the plates were treated with various substance dilutions (1E-5 M, 3E-6 M, 1E-6 M, 3E-7 M, 1E-7 M, 3E-8 M, 1E-8 M) and incubated at 37° C. over 96 hours (MOLM-13, B16F10, CHL-1 cells) or 120 hours (MOLP-8 cells). Subsequently, the fluorescence values were determined (CO values). For the data analysis, the CI values were subtracted from the CO values and the results were compared between cells which had been treated with various dilutions of the substance or only with buffer solution. The IC50 values (substance concentration needed for 50% inhibition of cell proliferation) were calculated therefrom.
Background: The colour change of resazurin is a common sign of viable cells or microbes.

In experiment [3] the test system is MOLM-13 cells. Kind of experiment: Cell proliferation assay (alamarBlue), MOLM-13. It counts as cell-based. Particulars: Homo sapiens; MOLM-13 (acute myeloid leukaemia), 96 hours. On the procedure: as §1
The MOLM-13 cells (DSMZ, ACC 554) were sown at a concentration of 4000 cells/well in 100 μl of growth medium (RPMI1640, 10% FCS) on 96-well microtitre plates.
as §2

For the molecule `C[C@@H]1C(=O)N(C)c2ccc(Nc3cccc(S(=O)(=O)NCC4CCN(C)CC4)c3)nc2N1C1CCOCC1` [Example 44, 3-{[(3R)-1,3-dimethyl-2-oxo-4-(tetrahydro-2H-pyran-4-yl)-1,2,3,4-tetrahydropyrido[2,3-b]pyrazin-6-yl]amino}-N-[(1-methylpiperidin-4-yl)methyl]benzene-sulphonamide], the 50% inhibitory concentration (IC50) in experiment [1] amounted to 88 nM; in experiment [2] it was 944 nM; in experiment [3] it was 253 nM.
The matching figures for `CC(C)CN1c2nc(Nc3cccc(S(=O)(=O)N[C@H]4CC[C@H](N5CCN(CC6CC6)CC5)CC4)c3)ccc2N(C)C(=O)[C@H]1C` [Example 45, N-{trans-4-[4-(cyclopropylmethyl)-piperazin-1-yl]cyclohexyl}-3-{[(3R)-4-isobulyl-1,3-dimethyl-2-oxo-1,2,3,4-tetrahydropyrido[2,3-b]pyrazin-6-yl]amino}-benzenesulphonamide]: 148 nM, 393 nM and 126 nM.
As for `COc1ccc(S(=O)(=O)N2CCN(C)CC2)cc1Nc1ccc2c(n1)N(C1CCN(C)CC1)[C@H](C)C(=O)N2C` [Example 46, (3R)-6-({2-methoxy-5-[(4-methylpiperazin-1-yl)sulphonyl]phenyl}-amino)-1,3-dimethyl-4-(1-methylpiperidin-4-yl)-3,4-dihydropyrido[2,3-b]pyrazin-2(1H)-one], the IC50 turned out to be 69 nM in experiment [1], 135 nM in experiment [2] and 45 nM in experiment [3].
The like results for `C[C@@H]1C(=O)N(C)c2ccc(Nc3cccc(S(=O)(=O)N4CCOCC4)c3)nc2N1C1CCN(C)CC1` [Example 47, (3R)-1,3-dimethyl-4-(1-methylpiperidin-4-yl)-6-{[3-(morpholin-4-ylsulphonyl)phenyl]-amino}-3-4-dihydropyrido-[2,3-b]pyrazin-2(1H)-one] were, in that order, 59 nM, 188 nM and 51 nM.
Regarding `C[C@@H]1C(=O)N(C)c2ccc(Nc3cccc(S(=O)(=O)NC4CCN(C)CC4)c3)nc2N1C1CCCCCC1` [Example 48, 3-{[(3R)-4-cycloheptyl-1,3-dimethyl-2-oxo-1,2,3,4-tetrahydropyrido-[2,3-b]pyrazin-6-yl]amino}-N-(1-methylpiperidin-4-yl)benzenesulphonamide], the IC50 turned out to be 101 nM in experiment [1], 586 nM in experiment [2] and 240 nM in experiment [3].
On to `C[C@@H]1C(=O)N(C)c2ccc(Nc3cccc(S(=O)(=O)N4CCN(C)CC4)c3)nc2N1C1CCN(C)CC1` [Example 50, (3R)-1,3-dimethyl-6-({3-[(4-methylpiperazin-1-yl)sulphonyl]phenyl}-amino)-4-(1-methyl-piperidin-4-yl)-3,4-dihydropyrido[2,3-b]pyrazin-2(1H)-one], for which the figures for the concentration for half-maximal inhibition (IC50) in experiment [1], in experiment [2] and in experiment [3] were 121 nM, 727 nM and 213 nM, respectively.
Take `CC(C)N1c2nc(Nc3cccc(S(=O)(=O)NC4CCN(C)CC4)c3)ccc2N(C)C(=O)[C@H]1C` [Example 51, 3-{[(3R)-4-isopropyl-1,3-dimethyl-2-oxo-1,2,3,4-tetrahydropyrido[2,3-b]pyrazin-6-yl]amino}-N-(1-methylpiperidin-4-yl)benzenesulphonamide]: the IC50 in experiment [1] was determined as 99 nM; in experiment [2], 423 nM; in experiment [3], 97 nM.
The like results for `C[C@@H]1C(=O)N(C)c2ccc(Nc3cccc(S(=O)(=O)N[C@H]4CC[C@H](N5CCN(CC6CC6)CC5)CC4)c3)nc2N1C1CCN(C(=O)OC(C)(C)C)CC1` [Example 52, tert-butyl 4-[(3R)-6-{[3-({trans-4-[4-(cyclo-propylmethyl)piperazin-1-yl]cyclohexyl}-sulphamoyl)phenyl]amino}-1,3-dimethyl-2-oxo-2,3-dihydropyrido[2,3-b]pyrazin-4(1H)-yl]piperidine-1-carboxylate] were, in that order, 86 nM, 569 nM and 180 nM.
The like results for `C[C@@H]1C(=O)N(C)c2ccc(N(C)c3cccc(S(=O)(=O)N(C)C)c3)nc2N1C1CCOCC1` [Example 54, 3-{[(3R)-1,3-dimethyl-2-oxo-4-(tetrahydro-2H-pyran-4-yl)-1,2,3,4-tetrahydropyrido[2,3-b]pyrazin-6-yl](methyl)-amino}-N,N-dimethyl-benzenesulphonamide] were, in that order, 62 nM, 164 nM and 233 nM.
The matching figures for `CC(C)N1c2nc(Nc3cccc(S(=O)(=O)NCCN(C)C)c3)ccc2N(C)C(=O)[C@H]1C` [Example 55, N-[2-(dimethylamino)-ethyl]-3-{[(3R)-4-isopropyl-1,3-dimethyl-2-oxo-1,2,3,4-tetrahydro-pyrido[2,3-b]pyrazin-6-yl]amino}benzene-sulphonamide]: 149 nM, 312 nM and 78 nM.
Take `C[C@@H]1C(=O)N(C)c2ccc(Nc3ccc4c(c3)S(=O)(=O)NC4)nc2N1C1CCOCC1` [Example 56, (3R)-6-[(1,1-dioxido-2,3-dihydro-1,2-benzothiazol-6-yl)amino]-1,3-dimethyl-4-(tetrahydro-2H-pyran-4-yl)-3,4-dihydropyrido[2,3-b]pyrazin-2(1H)-one]: the 50% inhibitory concentration (IC50) in experiment [1] turned out to be 77 nM; in experiment [2], 488 nM; in experiment [3], 239 nM.
The matching figures for `C[C@@H]1C(=O)N(C)c2ccc(Nc3cccc(S(=O)(=O)NC4CCN(C)CC4)c3)nc2N1C1CCN(C(=O)OC(C)(C)C)CC1` [Example 57, tert-butyl 4-[(3R)-1,3-dimethyl-6-({3-[(1-methylpiperidin-4-yl)sulphamoyl]phenyl}-amino)-2-oxo-2,3-dihydro-pyrido[2,3-b]pyrazin-4(1H)-yl]piperidine-1-carboxylate]: 177 nM, 531 nM and 193 nM.
The matching figures for `C[C@@H]1C(=O)N(C)c2ccc(Nc3cccc(S(N)(=O)=O)c3)nc2N1C1CCOCC1` [Example 58, 3-{[(3R)-1,3-dimethyl-2-oxo-4-(tetrahydro-2H-pyran-4-yl)-1,2,3,4-tetrahydropyrido[2,3-b]pyrazin-6-yl]amino}-benzenesulphonamide]: 103 nM, 613 nM and 378 nM.
Turning to `C[C@@H]1C(=O)N(C)c2ccc(Nc3cccc(S(=O)(=O)NCCN(C)C)c3)nc2N1C1CCN(C(=O)OC(C)(C)C)CC1` [Example 59, tert-butyl 4-[(3R)-6-[(3-{[2-(dimethylamino)ethyl]-sulphamoyl}phenyl)amino]-1,3-dimethyl-2-oxo-2,3-dihydropyrido[2,3-b]pyrazin-4(1H)-yl]piperidine-1-carboxylate], the IC50 stood at 77 nM in experiment [1], 1140 nM in experiment [2] and 516 nM in experiment [3].
The like results for `C[C@@H]1C(=O)N(C)c2ccc(Nc3cccc(C(=O)N[C@H]4CC[C@H](N5CCN(CC6CC6)CC5)CC4)c3)nc2N1Cc1ccccc1` [Example 72, 3-{[(3R)-4-benzyl-1,3-dimethyl-2-oxo-1,2,3,4-tetrahydropyrido[2,3-b]pyrazin-6-yl]amino}-N-{trans-4-[4-(cyclo-propylmethyl)piperazin-1-yl]cyclohexyl}benzamide] were, in that order, 256 nM, 396 nM and 250 nM.
For the molecule `C[C@@H]1C(=O)N(C)c2ccc(Nc3cccc(C(=O)NC4CCN(C)CC4)c3)nc2N1Cc1ccccc1` [Example 73, 3-{[(3R)-4-benzyl-1,3-dimethyl-2-oxo-1,2,3,4-tetrahydropyrido[2,3-b]pyrazin-6-yl]amino}-N-(1-methylpiperidin-4-yl)benzamide], the half-maximal inhibitory concentration (IC50) was found to be 86 nM in experiment [1], 468 nM in experiment [2] and 110 nM in experiment [3].
As to `C[C@@H]1C(=O)N(C)c2ccc(Nc3cccc(C(=O)NCCN4CCN(C)CC4)c3)nc2N1Cc1ccccc1` [Example 74, 3-{[(3R)-4-benzyl-1,3-dimethyl-2-oxo-1,2,3,4-tetrahydropyrido[2,3-b]pyrazin-6-yl]amino}-N-[2-(4-methylpiperazin-1-yl)ethyl]benzamide], the half-inhibitory concentration (IC50) in experiment [1] turned out to be 91 nM; in experiment [2], 491 nM; in experiment [3], 157 nM.
The like results for `C[C@@H]1C(=O)N(C)c2ccc(Nc3cccc(C(=O)N4CCN(C)CC4)c3)nc2N1Cc1ccccc1` [Example 75] were, in that order, 79 nM, 381 nM and 197 nM.
The matching figures for `CC(C)N1c2nc(Nc3cccc(C(=O)N4CCN(C)CC4)c3)ccc2N(C)C(=O)[C@H]1C` [Example 77, (3R)-4-isopropl-1,3-dimethyl-6-({3-[(4-methylpiperazin-1-yl)carbonyl]phenyl}-amino)-3,4-dihydro-pyrido[2,3-b]pyrazin-2(1H)-one]: 118 nM, 973 nM and 1010 nM.
